{"source": "patent US9801880B2", "about": "“Use of kinase inhibitors” (BerGenBio AS, priority 2013, dated 2017)", "key": {"BaF3/wt-BCR-ABL cells": {"test_system": "BaF3/wt-BCR-ABL cells", "test": "Subcutaneous BaF3/wt-BCR-ABL tumor model", "format": "in vivo", "settings": "25 (or 50) mg/kg twice per day via gavage; NSG mice", "procedure": "(§1) 6- to 8-week-old male NSG mice were implanted subcutaneously with 1×10^7 BaF3/wt-BCR-ABL or 1×10^7 BaF3/T315I cells per mouse into the right flank. Five days after implantation mice were randomized into groups with a mean volume of approximately 100 mm^3. […] Tumor volume was measured every 2-3 days. Animals were sacrificed at day 12 and tumors embedded for histology."}, "Abl [1]": {"target": "T1, Abl (Homo sapiens, UniProt P00519)", "test": "biochemical", "text": "(§2) Detailed assay methodologies can be found in the relevant references cited herein, or in the KinaseProfiler Service Assay Protocols (v54, 2011) available from EMD Millipore (www.emdmillipore.com), or from the KinomeScan website (www.kinomescan.com), as appropriate. (For a more detailed description of KINOMEscan's assay technology, see: Fabian et al. A small molecule-kinase interaction map for clinical kinase inhibitors. Nat. Biotechnol. 23, 329-336 (2005)). A summary is provided below.\n(§3) KinomeScan™ assays (DiscoveRx Corporation, San Diego, Calif., USA) are active-site-directed competition binding assays. […] The amount of kinase captured in test versus control samples is determined by using a qPCR method that detects the associated DNA label on each kinase molecule. Dissociation constants (Kd) for test compound-kinase interactions are calculated by measuring the amount of kinase captured on the solid support as a function of the test compound concentration."}, "c-Kit": {"target": "c-Kit (Homo sapiens, UniProt P10721)", "sequence (P10721 26-976)": "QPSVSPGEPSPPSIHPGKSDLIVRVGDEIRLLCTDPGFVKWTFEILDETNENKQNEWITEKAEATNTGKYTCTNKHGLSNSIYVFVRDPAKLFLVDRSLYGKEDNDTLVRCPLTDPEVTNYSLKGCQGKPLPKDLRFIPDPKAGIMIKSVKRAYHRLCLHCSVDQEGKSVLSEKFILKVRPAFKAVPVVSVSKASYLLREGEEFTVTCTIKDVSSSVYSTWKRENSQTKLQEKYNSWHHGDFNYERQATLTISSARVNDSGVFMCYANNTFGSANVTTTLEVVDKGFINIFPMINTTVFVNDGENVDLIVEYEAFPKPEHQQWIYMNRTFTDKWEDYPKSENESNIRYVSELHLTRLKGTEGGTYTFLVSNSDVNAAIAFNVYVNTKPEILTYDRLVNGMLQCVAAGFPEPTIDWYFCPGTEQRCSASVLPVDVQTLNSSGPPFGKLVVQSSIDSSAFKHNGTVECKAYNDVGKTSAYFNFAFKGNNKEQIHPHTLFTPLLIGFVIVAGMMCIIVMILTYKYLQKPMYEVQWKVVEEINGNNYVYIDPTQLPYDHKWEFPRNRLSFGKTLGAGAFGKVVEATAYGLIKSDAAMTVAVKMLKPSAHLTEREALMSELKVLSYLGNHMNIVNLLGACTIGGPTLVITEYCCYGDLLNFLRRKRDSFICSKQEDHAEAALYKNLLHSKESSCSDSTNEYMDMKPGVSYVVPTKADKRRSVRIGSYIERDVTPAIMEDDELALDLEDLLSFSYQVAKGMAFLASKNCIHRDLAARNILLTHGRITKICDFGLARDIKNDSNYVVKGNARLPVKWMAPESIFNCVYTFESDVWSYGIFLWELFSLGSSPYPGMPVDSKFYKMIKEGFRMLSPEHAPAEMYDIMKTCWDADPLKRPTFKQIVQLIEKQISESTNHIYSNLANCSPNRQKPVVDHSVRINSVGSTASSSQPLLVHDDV", "test": "biochemical", "text": "as §2, §3"}, "[2]": {"test_system": "T315I-mutated BCR-ABL1 transduced bone marrow cells", "test": "Preclinical CML model, bone marrow cells transduced with T315I-mutated BCR-ABL1", "format": "in vivo", "settings": "25 (or 50) mg/Kg twice per day; Balb/c mice", "procedure": "6- to 8 week old male Balb/c mice were sublethally irradiated and i.v. injected with 0.5×10^6 retroviral transduced BM cells (pMSCV_gfp/BCR-ABL_T315I).\nBone marrow donor mice: To harvest donor bone marrow mice were injected subcutaneously with 5-FU (150 mg/kg mice). The bone marrow was isolated five days later and transduced with the desired retroviral construct. [Daley, G. Q., R. A. Van Etten, and D. Baltimore, Induction of chronic myelogenous leukemia in mice by the P210bcr/abl gene of the Philadelphia chromosome. Science, 1990. 247(4944): p. 824-30.]"}, "BaF3/T315I cells": {"test_system": "BaF3/T315I cells", "test": "Subcutaneous BaF3/T315I tumor model", "format": "in vivo", "settings": "25 (or 50) mg/kg twice per day via gavage; NSG mice", "procedure": "as §1"}, "Abl [3]": {"target": "T1, Abl", "test": "KinaseProfiler kinase activity assay", "format": "biochemical", "settings": "Abl wild-type; ATP at Km", "text": "as §2\n(§4) KinaseProfiler™ assays (EMD Millipore Corp. Billerica, Mass., USA) are […] with purified or partially-purified human kinases. Most of the KinaseProfiler™ assays are conducted in 20 mM MOPS, 1 mM EDTA, 0.01% Brij-35, 5% Glycerol, 0.1% b-mercaptoethanol, 1 mg/mL BSA. The assay involves the transfer of ^32P from γ-^32P-ATP to the target peptide, followed by washing and trapping of the labeled peptide on a filter. The concentration of γ-^32P-ATP used was at the established Km for ATP."}, "[4]": {"test_system": "Ba/F3 cells expressing the non-mutated Bcr-Abl1 kinase", "test": "WST-1 cell viability, Ba/F3 cells expressing Bcr-Abl1", "format": "cell-based", "settings": "Mus musculus, BaF3, 48 hours, serum free", "procedure": "(§5) Ba/F3 cells either stably overexpressing Bcr-Abl1 (A) or the mutant Bcr-Abl1 T315I (B) were cultured overnight in serum free RPMI-1640 media supplemented with 2 mM glutamine, 100 U/mL penicillin and 100 μg/mL streptomycin (Sigma-Aldrich). The following day, cells were plated in a 96-well plate with each well containing 2000 cells in a volume of 100 μl serum free RMPI media. […] The 96 well plates were incubated for 48 hours, and cell viability was measured in a WST-1 assay (Roche). Briefly, 5 μl WST-1 solution was added to each well and the 96-well plate was incubated for another 2 hours. The readout was performed in an ELSA reader at 480 nm. (measure)/620 nm (reference). Subsequent data analysis was performed with Microsoft Excel 2003 and GraphPad Prism 4.0."}, "Flt4": {"target": "Flt4 (Homo sapiens, UniProt P35916)", "sequence (P35916 25-1363)": "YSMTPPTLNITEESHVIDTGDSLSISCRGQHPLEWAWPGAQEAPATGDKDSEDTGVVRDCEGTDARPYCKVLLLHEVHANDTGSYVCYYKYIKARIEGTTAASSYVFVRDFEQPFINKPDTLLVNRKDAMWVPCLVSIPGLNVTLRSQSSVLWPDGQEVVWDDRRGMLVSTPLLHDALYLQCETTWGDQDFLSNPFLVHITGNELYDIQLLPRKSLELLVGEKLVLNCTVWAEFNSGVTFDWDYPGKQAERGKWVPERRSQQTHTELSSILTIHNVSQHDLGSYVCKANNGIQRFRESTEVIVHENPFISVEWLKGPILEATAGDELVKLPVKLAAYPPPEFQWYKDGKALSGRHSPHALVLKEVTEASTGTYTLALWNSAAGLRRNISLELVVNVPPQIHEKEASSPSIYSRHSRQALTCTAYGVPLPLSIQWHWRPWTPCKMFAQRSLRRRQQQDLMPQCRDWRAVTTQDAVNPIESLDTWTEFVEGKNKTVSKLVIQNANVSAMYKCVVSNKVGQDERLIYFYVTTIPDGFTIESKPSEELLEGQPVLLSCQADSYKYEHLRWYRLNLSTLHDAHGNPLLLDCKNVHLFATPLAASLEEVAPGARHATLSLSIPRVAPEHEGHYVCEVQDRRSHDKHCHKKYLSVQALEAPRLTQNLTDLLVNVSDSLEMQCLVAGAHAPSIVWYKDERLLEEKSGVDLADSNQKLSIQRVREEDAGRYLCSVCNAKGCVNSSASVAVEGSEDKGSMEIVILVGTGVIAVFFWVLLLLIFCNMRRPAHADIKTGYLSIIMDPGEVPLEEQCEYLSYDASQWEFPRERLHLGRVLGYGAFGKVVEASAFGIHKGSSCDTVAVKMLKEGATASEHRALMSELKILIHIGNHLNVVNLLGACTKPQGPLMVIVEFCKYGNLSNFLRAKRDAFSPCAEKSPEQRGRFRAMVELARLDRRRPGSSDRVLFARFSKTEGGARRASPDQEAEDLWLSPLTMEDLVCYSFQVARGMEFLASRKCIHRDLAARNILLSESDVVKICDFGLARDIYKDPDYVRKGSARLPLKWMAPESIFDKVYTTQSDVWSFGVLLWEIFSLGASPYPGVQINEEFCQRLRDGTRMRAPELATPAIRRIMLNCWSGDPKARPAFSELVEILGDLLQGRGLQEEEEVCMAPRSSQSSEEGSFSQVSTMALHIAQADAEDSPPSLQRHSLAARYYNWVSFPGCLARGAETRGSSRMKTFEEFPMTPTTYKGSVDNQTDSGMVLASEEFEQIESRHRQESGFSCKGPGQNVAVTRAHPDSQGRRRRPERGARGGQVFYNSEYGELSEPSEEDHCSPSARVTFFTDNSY", "test": "KinomeScan competition binding assay", "parameters": "purchased DiscoveRx Corporation (KinomeScan service)", "text": "as §2, §3"}, "TEK": {"target": "TEK (Homo sapiens, UniProt Q02763)", "sequence (Q02763 23-1124)": "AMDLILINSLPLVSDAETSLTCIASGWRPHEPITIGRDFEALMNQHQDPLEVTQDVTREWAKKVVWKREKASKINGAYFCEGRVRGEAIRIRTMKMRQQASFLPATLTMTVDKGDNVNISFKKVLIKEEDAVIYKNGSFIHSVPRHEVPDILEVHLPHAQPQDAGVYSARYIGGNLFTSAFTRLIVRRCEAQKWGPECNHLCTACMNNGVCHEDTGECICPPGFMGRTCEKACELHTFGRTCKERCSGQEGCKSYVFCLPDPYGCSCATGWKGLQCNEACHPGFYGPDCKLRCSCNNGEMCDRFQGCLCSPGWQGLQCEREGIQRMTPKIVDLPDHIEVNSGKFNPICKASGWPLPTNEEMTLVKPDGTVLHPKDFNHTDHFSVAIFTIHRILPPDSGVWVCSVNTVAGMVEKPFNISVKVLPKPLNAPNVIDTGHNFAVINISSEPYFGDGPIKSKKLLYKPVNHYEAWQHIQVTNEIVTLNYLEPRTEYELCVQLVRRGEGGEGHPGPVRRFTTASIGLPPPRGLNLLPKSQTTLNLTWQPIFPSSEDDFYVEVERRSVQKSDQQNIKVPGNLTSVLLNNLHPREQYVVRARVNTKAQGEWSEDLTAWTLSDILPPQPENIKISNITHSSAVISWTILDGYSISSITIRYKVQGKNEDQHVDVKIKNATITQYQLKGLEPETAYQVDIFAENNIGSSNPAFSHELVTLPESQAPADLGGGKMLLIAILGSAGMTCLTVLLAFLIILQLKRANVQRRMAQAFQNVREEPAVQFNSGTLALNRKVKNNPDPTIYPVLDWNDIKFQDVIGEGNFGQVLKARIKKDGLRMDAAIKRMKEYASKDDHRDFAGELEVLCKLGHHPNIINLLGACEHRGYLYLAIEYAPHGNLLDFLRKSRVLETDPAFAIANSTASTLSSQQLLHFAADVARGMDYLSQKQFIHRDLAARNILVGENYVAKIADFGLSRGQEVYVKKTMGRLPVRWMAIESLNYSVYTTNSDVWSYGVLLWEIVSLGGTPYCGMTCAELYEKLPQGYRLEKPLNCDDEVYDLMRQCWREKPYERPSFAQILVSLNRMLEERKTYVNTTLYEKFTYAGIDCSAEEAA", "test": "KinomeScan competition binding assay", "parameters": "purchased DiscoveRx Corporation (KinomeScan service)", "text": "as §2, §3"}, "Stk10": {"target": "Stk10 (Homo sapiens, UniProt O94804)", "sequence (O94804 whole entry)": "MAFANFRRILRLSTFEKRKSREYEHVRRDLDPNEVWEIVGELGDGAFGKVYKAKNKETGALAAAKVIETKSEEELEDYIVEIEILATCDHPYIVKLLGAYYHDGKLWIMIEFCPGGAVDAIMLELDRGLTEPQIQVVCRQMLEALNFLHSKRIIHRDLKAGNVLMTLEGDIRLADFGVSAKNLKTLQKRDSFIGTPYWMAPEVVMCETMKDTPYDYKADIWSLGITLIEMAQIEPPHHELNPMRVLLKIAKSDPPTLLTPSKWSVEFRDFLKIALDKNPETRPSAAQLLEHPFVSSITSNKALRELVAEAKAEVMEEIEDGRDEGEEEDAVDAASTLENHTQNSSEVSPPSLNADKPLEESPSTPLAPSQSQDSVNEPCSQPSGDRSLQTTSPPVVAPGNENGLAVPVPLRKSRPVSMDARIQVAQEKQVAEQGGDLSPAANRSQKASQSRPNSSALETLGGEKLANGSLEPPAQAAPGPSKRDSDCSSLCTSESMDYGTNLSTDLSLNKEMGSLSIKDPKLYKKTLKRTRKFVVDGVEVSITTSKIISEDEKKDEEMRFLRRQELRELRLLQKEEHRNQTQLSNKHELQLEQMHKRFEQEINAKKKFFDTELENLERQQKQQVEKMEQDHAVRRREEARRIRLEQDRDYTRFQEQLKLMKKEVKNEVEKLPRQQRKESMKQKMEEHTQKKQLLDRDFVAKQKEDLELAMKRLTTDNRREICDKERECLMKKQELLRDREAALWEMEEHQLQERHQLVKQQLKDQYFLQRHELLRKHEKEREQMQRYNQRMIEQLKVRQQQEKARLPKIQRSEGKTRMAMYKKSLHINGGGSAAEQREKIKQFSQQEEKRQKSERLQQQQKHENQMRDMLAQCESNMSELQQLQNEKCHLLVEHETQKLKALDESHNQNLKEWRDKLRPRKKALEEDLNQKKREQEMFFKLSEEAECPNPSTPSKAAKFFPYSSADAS", "test": "KinomeScan competition binding assay", "parameters": "purchased DiscoveRx Corporation (KinomeScan service)", "text": "as §2, §3"}, "c-Kit (D816V)": {"target": "c-Kit (D816V) (Homo sapiens, UniProt P10721, D816V)", "sequence (P10721 26-976 D816V)": "as the sequence (P10721 26-976) above, with D791V counted along it", "test": "KinomeScan competition binding assay", "parameters": "purchased DiscoveRx Corporation (KinomeScan service)", "text": "as §2, §3"}, "Flt3 (D835Y)": {"target": "Flt3 (D835Y) (Homo sapiens, UniProt P36888, D835Y)", "test": "KinomeScan competition binding assay", "parameters": "purchased DiscoveRx Corporation (KinomeScan service)", "text": "as §2, §3"}, "c-Kit (D816H)": {"target": "c-Kit (D816H) (Homo sapiens, UniProt P10721, D816H)", "sequence (P10721 26-976 D816H)": "as the sequence (P10721 26-976) above, with D791H counted along it", "test": "KinomeScan competition binding assay", "parameters": "purchased DiscoveRx Corporation (KinomeScan service)", "text": "as §2, §3"}, "Abl(M351T)": {"target": "Abl(M351T) (Homo sapiens, UniProt P00519, M351T)", "test": "KinomeScan competition binding assay", "parameters": "purchased DiscoveRx Corporation (KinomeScan service)", "text": "as §2, §3"}, "Ret": {"target": "Ret (Homo sapiens, UniProt P07949)", "test": "KinomeScan competition binding assay", "parameters": "purchased DiscoveRx Corporation (KinomeScan service)", "text": "as §2, §3"}, "[5]": {"test_system": "Ba/F3 cells expressing T315I mutated Bcr-Abl1 fusion protein", "test": "WST-1 cell viability, Ba/F3 cells expressing Bcr-Abl1 T315I", "format": "cell-based", "settings": "Mus musculus, BaF3, 48 hours, serum free, read-out: IB50 cell viability", "procedure": "as §5"}, "plasma protein": {"test_system": "plasma protein", "test": "Plasma protein binding", "format": "in vitro ADME", "settings": "in animals and humans"}, "[6]": {"target": "Other mutations of Abl kinase that arise during development of resistance (Homo sapiens, UniProt P00519)", "test": "Inhibition of other Abl kinase resistance mutations (biochemical assays)", "settings": "read-out: inhibition range, other mutations of Abl kinase", "text": "as §2, §4"}}, "data": [{"smiles": "Nc1nc(Nc2ccc3c(c2)CC[C@@H](N2CCCC2)CC3)nn1-c1cc2c(nn1)-c1ccccc1CCC2", "note": "[Compound A, 1-(6,7-dihydro-5H-benzo[6,7]cyclohepta[1,2-c]pyridazine-3-yl)-N^3-(7-(S)-(pyrrolidin-1-yl)-6,7,8,9-tetrahydro-5H-benzo[7]annulene-2-yl)-1H-1,2,4-triazole-3,5-diamine]", "values": [{"measurement": "inhibition of wild type CML in vivo (tumor volume)", "setting": "BaF3/wt-BCR-ABL cells", "result": "potentially inhibits"}, {"measurement": "Kd", "setting": "Abl [1]", "result": 52, "unit": "nM"}, {"measurement": "Kd", "setting": "c-Kit", "result": 104, "unit": "nM"}, {"measurement": "leukemia cell burden", "setting": "[2]", "result": "reduced leukemia cell burden"}, {"measurement": "inhibition of T315I mutated CML in vivo (tumor volume)", "setting": "BaF3/T315I cells", "result": "potentially inhibits"}, {"measurement": "IC50", "setting": "Abl [3]", "result": 51, "unit": "nM"}, {"measurement": "IC50", "setting": "[4]", "result": 796, "unit": "nM"}, {"measurement": "Kd", "setting": "Flt4", "result": 460, "unit": "nM"}, {"measurement": "Kd", "setting": "TEK", "result": 270, "unit": "nM"}, {"measurement": "Kd", "setting": "Stk10", "result": 9.2, "unit": "nM"}, {"measurement": "Kd", "setting": "c-Kit (D816V)", "result": 10.2, "unit": "nM"}, {"measurement": "Kd", "setting": "Flt3 (D835Y)", "result": 11.2, "unit": "nM"}, {"measurement": "Kd", "setting": "c-Kit (D816H)", "result": 63, "unit": "nM"}, {"measurement": "Kd", "setting": "Abl(M351T)", "result": 104, "unit": "nM"}, {"measurement": "Kd", "setting": "Ret", "result": 73, "unit": "nM"}, {"measurement": "IC50", "setting": "[5]", "result": 570, "unit": "nM"}, {"measurement": "binding to plasma protein", "setting": "plasma protein", "result": "> 99", "unit": "%"}, {"measurement": "IC50", "setting": "[6]", "result": "16 to 32", "unit": "nM"}]}]}
